Data published in patent US20110207807A1, “NEW USE FOR HOMOISOFLAVONE OR A SALT THEREOF” (Catholic University Industry Academy Cooperation Foundation, priority 2008, published 2011).

How the values were obtained:
BALE/c mice = assay: Ear edema induced by UV radiation in animal model; type: in vivo, mouse; conditions: UV 7.5 kJ/m^2, 72 hours after UV (FIG. 10a)
Procedure: BALE/c mice were subdivided into a non-treated group (treated with acetone only without UV radiation), a control group (irradiated with UV at 7.5 kJ/m^2) and a test group (treated with 0.6 or 1 μg/10 μL homoisoflavanone and irradiated with UV at 7.5 kJ/m^2). Then, the effect on ear edema induced by UV radiation was investigated.
One hour before irradiating UV at 7.5 kJ/m^2, 1 μg/10 μL homoisoflavanone was applied on the front and rear parts of the ear, 5 μL each. Then, 72 hours after UV radiation, ear thickness was measured.

HMC-1 cells = assay: Histamine release during degranulation of HMC-1 (histamine enzyme assay kit); type: cell-based, human; conditions: HMC-1, 2 μg/mL, 50 nM PMA + 1 μM A23187 (FIG. 8b)
Procedure: In order to investigate the effect of homoisoflavanone on COX-2 expression induced by phorbol 12-myristate 13-acetate and A23187 in HMC-1, 1×10^5 HMC-1 cells were inoculated on a 6-well plate and cultured in IMDM containing 10% FBS for 48 hours. Then, after treating with homoisoflavanone at 2 μg/mL for 1 hour, the cells were treated with 50 nM phorbol 12-myristate 13-acetate and 1 μM A23187 to induce COX-2 expression, and then further cultured for 6 hours. Then, the cells were fixed with 2.5% glutaraldehyde and frozen with liquid nitrogen. The cells were detached from the plate by applying heat, sliced into […], attached on grids, and observed with a transmission electron microscope (TEM).
In order to measure histamine released during the degranulation, the cell supernatant was collected and subjected to measurement using a histamine enzyme assay kit (Cayman, USA) according to the manufacturer's instructions. First, the collected supernatant was anti-histamine derivatized and reacted with histamine-AChE tracer. Then, after washing at least 5 times followed by visualization for 60-90 minutes, absorbance was measured at 414 nm.

IL-6 = assay: UV-induced IL-6 mRNA expression in HaCaT cells (real-time PCR); type: cell-based, human; conditions: 1 μg/mL, UV 100 J/m^2, compared to control group (FIG. 3)
Procedure: 1×10^6 HaCaT cells were inoculated on a 100-mm culture dish and cultured in DMEM containing 10% FBS for 24 hour. Then, the cells were starved by culturing for 24 hours in DMEM containing 1% FBS. Then, after treating with homoisoflavanone at 1 μg/mL for 1 hour, the cells were washed 3 times with PBS and irradiated with UV at 100 J/m^2 to induce increase of cytokines. Immediately after the UV radiation, the cells were washed again with PBS and further cultured for 2 or 5 hours in DMEM containing 1% FBS which had been treated with homoisoflavanone at the same concentration.
After extracting RNA from the cells of each test group using TRIzol (Invitrogen, USA), cDNA was prepared by carrying out PCR (PTC-225 Peltier thermal cycler, MJ Research, USA). Then, the mRNA expression of IL-6, IL-8 and TNF-α was measured through real-time PCR (Roter Gene 6000 series, Corbett Research, Australia) using the cDNA as template and using commercially available IL-6, IL-8 and TNF-α primers. The expression level of the pro-inflammatory cytokines was compared relative to the non-treated group.

5-LOX = 5-LOX translocation to nuclear membrane induced by PMA and A23187 in HMC-1 (Western blot); type: cell-based, human; conditions: HMC-1, 2 μg/mL, 50 nM PMA + 1 μM A23187, 5 hours (FIG. 7b)
Procedure: In order to investigate the effect of homoisoflavanone on the migration of 5-LOX from the cytoplasm toward the nuclear membrane induced by phorbol 12-myristate 13-acetate and A23187 in human mast cells, 1×10^6 HMC-1 cells were inoculated on a 100-mm culture dish and cultured in IMDM containing 10% FBS for 48 hours. Then, after treating with homoisoflavanone at 2 μg/mL, the cells were treated with 50 nM phorbol 12-myristate 13-acetate and 1 μM A23187 to induce migration of 5-LOX to the nuclear membrane, and then further cultured for 5 hours.
Then, in order to measure the migration of 5-LOX to the nuclear membrane, nuclear membrane proteins were isolated first. The cells of each test group were lysed with a buffer containing 10 mM HEPES/KOH, 0.1 mM EDTA, 10% NP-40, 10 mM KCl, 1 mM DTT, 0.5 mM PMSF and a protease inhibitor cocktail on ice for 10 minutes. After centrifugation, the supernatant (cytoplasmic proteins) was separated from the pellets (nuclear membrane proteins). The cytoplasmic proteins were kept at −80° C. and the pellets were lysed with a buffer containing 10 mM HEPES/KOH, 0.1 mM EDTA, 10% NP-40, 300 mM NaCl, 1 mM DTT, 0.5 mM PMSF and a protease inhibitor cocktail by shaking on ice for 30 minutes. Then, after centrifugation, the supernatant (nuclear proteins) was separated. […]

leukotriene B4 = assay: Release of leukotriene B4 induced by PMA and A23187 in HMC-1 (enzyme immunoassay); type: cell-based, human
Text: Phorbol 12-myristate 13-acetate and A23187 lead to degranulation of human mast cells (HMC), causing the mast cells to release not only their histamine or serotonin but also newly produced inflammatory factors such as pro-inflammatory cytokines, prostaglandins and leukotrienes. It was investigated whether homoisoflavanone has anti-inflammatory effect in mast cells as in Examples 4 and 5. In order to investigate the effect of homoisoflavanone on the release of leukotriene induced by phorbol 12-myristate 13-acetate and A23187 in HMC-1, 1×10^6 HMC-1 cells were inoculated on a 100-mm culture dish and cultured in Iscove's modified Dulbecco's medium (IMDM, GIBCO) containing 10% FBS for 48 hours. Then, after treating with homoisoflavanone at 2 μg/mL or with mizolastine at 10 μg/mL for comparison for 1 hour, the cells were treated with 50 nM phorbol 12-myristate 13-acetate and 1 μM A23187 to induce release of leukotriene, and then further cultured for 21 hours. Then, the supernatant was collected and the quantity of released leukotriene B4 and C4 was measured using a leukotriene B4, C4 enzyme immunoassay kit (Sapphire Bioscience, Australia).

ERK = ERK phosphorylation induced by PMA and A23187 in HMC-1 (Western blot); type: cell-based, human; conditions: HMC-1, 2 μg/mL, 50 nM PMA + 1 μM A23187, 30 minutes (FIG. 7c)
Procedure: 1×10^6 HMC-1 cells were inoculated on a 100-mm culture dish and cultured in IMDM containing 10% FBS for 48 hours. […] Then, Western blotting was carried out in the same manner as in Example 2-1 except for using rabbit anti-p-cytosolic phospholipase A2 (cPLA2) antibody, rabbit anti-cPLA2 antibody, rabbit anti-ERK antibody and rabbit anti-p-ERK antibody (Cell Signaling) and using anti-rabbit IgG-HRP conjugation antibody (Zymed) as secondary antibody.

COc1ccc(CC2COc3cc(O)cc(O)c3C2=O)cc1O (centres unmarked) [homoisoflavanone]
decrease in ear thickness (BALE/c mice; 0.6 μg/ear topical): 44%
decrease in ear thickness (BALE/c mice; 1 μg/ear topical): 52%
inhibition of release of histamine (HMC-1 cells): 72%
expression of IL-6 (mRNA) induced by UV (IL-6): decreased expression
migration of 5-LOX toward the nuclear membrane (5-LOX): inhibited
leukotriene B4 release when treated alone, versus non-treated group (leukotriene B4; HMC-1, homoisoflavanone 2 μg/mL or mizolastine 10 μg/mL alone, without PMA/A23187 (FIG. 6a)): no appreciable difference
inhibition of release of leukotriene B4 (leukotriene B4; HMC-1, homoisoflavanone 2 μg/mL or mizolastine 10 μg/mL, 50 nM PMA + 1 μM A23187, 21 hours (FIG. 6a)): 70%
ERK phosphorylation (ERK): no effect
